From ChEMBL document CHEMBL1153858, “Application of phosphonyl carbanions to highly regioselective synthesis of some diazaphospholes and pyrazolinyl phosphonates” (2009) come the findings set out here.

Common to all, as to format: functional
Assay [1] deals with Staphylococcus aureus. The assay can be described thus: Antimicrobial activity against Staphylococcus aureus assessed as activity index.
Assay [2] deals with Aspergillus flavus. The assay can be described thus: Antimicrobial activity against Aspergillus flavus assessed as activity index.
For assay [3], the system named is Agrobacterium tumefaciens. The assay can be described thus: Antimicrobial activity against Bacillus tumefaciens.
The subject of assay [4] is Aspergillus flavus. The assay can be described thus: Antimicrobial activity against Aspergillus flavus.
Assay [5] deals with Aspergillus niger. Description: Antimicrobial activity against Aspergillus niger.
Assay [6] deals with Agrobacterium tumefaciens. Description: Antimicrobial activity against Bacillus tumefaciens assessed as activity index.
Assay [7] deals with Klebsiella pneumoniae. Description: Antimicrobial activity against Klebsiella pneumoniae assessed as activity index.
The test system of assay [8] is Penicillium chrysogenum. Description: Antimicrobial activity against Penicillium chrysogenum.
Assay [9] concerns Klebsiella pneumoniae. The assay can be described thus: Antimicrobial activity against Klebsiella pneumoniae.
The subject of assay [10] is Penicillium chrysogenum. The assay can be described thus: Antimicrobial activity against Penicillium chrysogenum assessed as activity index.
For assay [11], the system named is Aspergillus niger. Description: Antimicrobial activity against Aspergillus niger assessed as activity index.
Assay [12] deals with Staphylococcus aureus. The assay can be described thus: Antimicrobial activity against Staphylococcus aureus.

The structures appear in SMILES notation.

`CCOP(=O)(OCC)C1=C(N)C2(N=N1)C(=O)c1ccccc1C2=O`: the Activity with Staphylococcus aureus [1] was 52; in the assay on Aspergillus flavus [2] it was 0.78; in assay [6], 0.75; in the assay on Klebsiella pneumoniae [7] it was 0.47; in the assay with Penicillium chrysogenum [10], 0.71; in the assay with Aspergillus niger [11], 0.73. Also, the “Diameter of inhibition zone” value in assay [3] is listed as 8.4 mm; in the assay with Aspergillus flavus [4], 6.3 mm; with Aspergillus niger [5] it was 5.4 mm; with Penicillium chrysogenum [8], 5.2 mm; in the assay with Klebsiella pneumoniae [9], 6 mm; in the assay on Staphylococcus aureus [12], 7.2 mm.

Turning to `CCOP1(=O)C(SC)=NN(CC)C12C(=O)c1ccccc1C2=O` (stereo unspecified), the Activity in the assay on Staphylococcus aureus [1] is 1.16; in the assay on Aspergillus flavus [2], 1.36; in [6], 0.92; in the assay on Klebsiella pneumoniae [7], 0.81; with Penicillium chrysogenum [10], 1.32; in the assay with Aspergillus niger [11], 1.14. In addition, the “Diameter of inhibition zone” value in assay [3] was 12.6 mm; in the assay with Aspergillus flavus [4], 9.8 mm; in the assay with Aspergillus niger [5], 8 mm; in the assay with Penicillium chrysogenum [8] it was 9.2 mm; in the assay on Klebsiella pneumoniae [9] it was 10.5 mm; with Staphylococcus aureus [12], 12.8 mm.

For `CCOC(=O)C1=NN(CC)C2(C(=O)c3ccccc3C2=O)P1(=O)OCC` (stereo unspecified), the Activity in the assay with Staphylococcus aureus [1] is 0.88; with Aspergillus flavus [2] it was 1.35; in assay [6] it was 0.78; with Klebsiella pneumoniae [7], 0.8; in the assay with Penicillium chrysogenum [10] it was 1.42; in the assay with Aspergillus niger [11], 1.23. Moreover, the “Diameter of inhibition zone” value in assay [3] is listed as 11 mm; in the assay with Aspergillus flavus [4], 9.6 mm; with Aspergillus niger [5], 7.4 mm; in the assay on Penicillium chrysogenum [8], 7.8 mm; in the assay on Klebsiella pneumoniae [9], 11.3 mm; in the assay on Staphylococcus aureus [12] it was 8.5 mm.

`CCn1nc(SC)oc2c3ccccc3c(=O)c1=2`: the Activity with Staphylococcus aureus [1] turned out to be 0.26; with Aspergillus flavus [2], 0.41; in assay [6], 0.55; in the assay on Klebsiella pneumoniae [7], 0.32; with Penicillium chrysogenum [10], 0.54; in the assay on Aspergillus niger [11], 1.31. Besides, the “Diameter of inhibition zone” value in [3] was 5.6 mm; in the assay with Aspergillus flavus [4], 6.2 mm; with Aspergillus niger [5], 4.9 mm; in the assay on Penicillium chrysogenum [8], 5.6 mm; with Klebsiella pneumoniae [9], 5.1 mm; in the assay on Staphylococcus aureus [12] it was 5.9 mm.

Take `CCOP1(=O)C(C(=O)OC)=NN(CC)C12C(=O)c1ccccc1C2=O` (stereo unspecified): the Activity in the assay on Staphylococcus aureus [1] worked out at 0.85; with Aspergillus flavus [2] it was 1.12; in assay [6], 0.9; in the assay on Klebsiella pneumoniae [7], 1.04; in the assay with Penicillium chrysogenum [10] it was 1.31; in the assay with Aspergillus niger [11] it was 1.18. Moreover, the “Diameter of inhibition zone” value in assay [3] was found to be 12.2 mm; in the assay on Aspergillus flavus [4], 9 mm; in the assay on Aspergillus niger [5], 8.4 mm; in the assay with Penicillium chrysogenum [8] it was 7.9 mm; in the assay on Klebsiella pneumoniae [9], 10.3 mm; in the assay with Staphylococcus aureus [12], 9 mm.

`CCOP(=O)(OCC)C1=NN(CC)C2(C1)C(=O)c1ccccc1C2=O`: the Activity with Staphylococcus aureus [1] turned out to be 0.61; in the assay on Aspergillus flavus [2] it was 0.62; in assay [6], 0.84; in the assay on Klebsiella pneumoniae [7], 1; in the assay on Penicillium chrysogenum [10], 0.71; in the assay on Aspergillus niger [11], 0.66. The “Diameter of inhibition zone” value came to 9.8 mm in assay [3]; 5 mm with Aspergillus flavus [4]; 4.3 mm in the assay with Aspergillus niger [5]; 9 mm in the assay with Penicillium chrysogenum [8]; 7.6 mm in the assay on Klebsiella pneumoniae [9]; 8 mm with Staphylococcus aureus [12].

In the case of `CCOP(=O)(OCC)C1=NN(CC)C2(C1=O)C(=O)c1ccccc1C2=O`, the Activity came to 0.83 in the assay on Staphylococcus aureus [1]; 0.88 with Aspergillus flavus [2]; 0.57 in assay [6]; 0.63 in the assay with Klebsiella pneumoniae [7]; 1.06 in the assay with Penicillium chrysogenum [10]; 0.73 with Aspergillus niger [11]. Moreover, the “Diameter of inhibition zone” value worked out at 7.6 mm in assay [3]; 7.4 mm in the assay on Aspergillus flavus [4]; 6.1 mm with Aspergillus niger [5]; 5.9 mm with Penicillium chrysogenum [8]; 8.2 mm in the assay on Klebsiella pneumoniae [9]; 7.6 mm with Staphylococcus aureus [12].

With `CCOP1(=O)C(C#N)=NN(CC)C12C(=O)c1ccccc1C2=O` (stereo unspecified), the Activity in the assay on Staphylococcus aureus [1] was found to be 0.92; in the assay on Aspergillus flavus [2], 1.15; in [6], 0.89; in the assay with Klebsiella pneumoniae [7] it was 1.16; with Penicillium chrysogenum [10], 1; in the assay on Aspergillus niger [11], 1.14. In addition, the “Diameter of inhibition zone” value worked out at 10 mm in [3]; 11.3 mm in the assay on Aspergillus flavus [4]; 9 mm in the assay with Aspergillus niger [5]; 8 mm in the assay with Penicillium chrysogenum [8]; 12 mm in the assay on Klebsiella pneumoniae [9]; 10 mm with Staphylococcus aureus [12].
